Assay results from US11155576B2, “Synthetic peptides, enzymatic formation of pericellular hydrogels/nanofibrils, and methods of use” (BRANDEIS UNIVERSITY, priority 2014, dated 2021).
Entries after “also recorded” stand apart in the source; their conditions may differ. Square brackets hold non-standard residues; d marks the D form. Peptide text beside a SMILES is read from it. * marks the point of attachment. ξ: configuration not given here. d(pY) = N[C@H](Cc1ccc(OP(=O)(O)O)cc1)C(=O)O; NBD = O=[N+]([O-])c1ccc(*)c2nonc12; ξ2Nal = NC(Cc1ccc2ccccc2c1)C(=O)O; βAla = NCCC(=O)O

Legend:
[1] = test system: PC-12 Adh; experiment: Ectophosphatase imaging of live cells, PC-12 Adh; type: cell-based, rat; settings: 500 μM, 24 hour incubation
Description: (§1) FIGS. 18A-H show imaging and ectophosphatase quantification of live cells incubated with D3-a. FIGS. 18A-F show confocal microscopy images. […] The scale bar is […]. The images in FIG. 18B show the time course of fluorescence on HeLa cells incubated with D3-a for 30 minutes, 1 hour, 3 hours, and 6 hours, respectively. Nuclei were stained with Hoechst 33342. FIG. 18C is a 3D stacked z-scan image of fluorescence on HeLa cells treated with D-3a for 6 hours. […] Scale bar: 100 μm for FIG. 18B, upper panels and FIG. 18D; 10 μm for FIG. 18B, lower panels, FIG. 18E, and FIG. 18F. [D-3a]=500 μM for enhancing spatiotemporal resolution. […] FIG. 18H is a plot of time versus the fluorescence of pericellular nanofibrils on HeLa cells treated with D-3a. The initial cell number is 5,000 cells/well. All the confocal microscope images were taken after removing the medium with D-3a and then adding the live cell image solution (Invitrogen Life Technologies A14291DJ). [D3-a]=500 μM for FIGS. 18G-H.
(§2) To validate D-3a as an effective agent for the detection of phosphatase activity on a wide variety of cells, the cellular ectophosphatase activity of various cell lines, including PC-12, Capan-2, A375, Ect1/E6E7, and C3H10T1/2, was evaluated following 24 hour incubation of cells with 500 μM D-3a (FIG. 18A).

[2] = test system: Capan-2; experiment: Ectophosphatase imaging of live cells, Capan-2; type: cell-based, human; settings: 500 μM, 24 hour incubation
Description: as §1, §2

[3] = test system: A375; experiment: Ectophosphatase imaging of live cells, A375; type: cell-based, human; settings: 500 μM, 24 hour incubation
Description: as §1, §2

[4] = test system: C3H10T1/2; experiment: Ectophosphatase imaging of live cells, C3H10T1/2; type: cell-based, murine; settings: 500 μM, 24 hour incubation
Description: as §1, §2

[5] = test system: Ect1/E6E7; experiment: Ectophosphatase imaging of live cells, Ect1/E6E7; type: cell-based, human; settings: 500 μM, 24 hour incubation
Description: as §1, §2

[6] = test system: Alkaline-phosphatase (“ALP”); settings: D-3a; ALP (2 U/ml) in FIG. 38B
Text: […] Scale bar=100 nm.
Napthalene capped tripeptide precursor molecule D-2a and hydrogelator molecule D-2b, synthesized according to Yang et al. (Small 3:558-562 (2007), which is hereby incorporated by reference in its entirety), are comprised of the tripeptide D-Phe-D-Phe-D-Tyr (FIG. 1B). The D-Tyr of D-2a is phosphorylated (FIG. 1B).

[7] = test system: HeLa cells; experiment: Fluorescence imaging of HeLa/HS-5 co-culture, HeLa; type: cell-based, human; settings: co-culture of HeLa and HS-5, 500 μM, 6 and 24 hours
Text: (§3) FIGS. 17A-C illustrates that phosphatases catalyze self-assembly to form fluorescent nanofibrils with high spatiotemporal resolution. FIG. 17A is an illustration of phosphatase-catalyzed spatiotemporal formation of fluorescent pericellular nanofibrils in co-culture mimicking tumor microenvironment. […] ALP or tyrosine phosphatase (“PTP”) converts D-3a to D-3b, which self-assembles in physiological condition to form fluorescent nanofibrils of D-3b. FIG. 17C contains a pair of fluorescent images showing that the fluorescent nanofibrils of D-3b selectively form on HeLa cells (the cancer cell, identified by arrows) and […] (the stromal cell, indicated by the arrow heads) in the co-culture of HeLa and HS-5. [D-3a]=500 μM, 6 hours (left panel) and 24 hours (right panel) incubation (scale bar=10 μm, the nuclei stained by Hoechst 33342, a DNA dye for live cells).
(§4) Co-culture of cancer cell (i.e., HeLa cells) and stromal cells (i.e., HS-5 cells) mimics the tumor microenvironment (Straussman et al., Nature 487:500-U118 (2012), which is hereby incorporated by reference in its entirety). […] This approach also offers a method for the visualization of live cells that express ectophosphatases.

[8] = test system: HeLa cells; experiment: Ectophosphatase imaging of live cells, HeLa time course; type: cell-based, human
Description: as §1
To investigate the spatiotemporal resolution of D-3a fluorescence, HeLa cells were incubated with 500 μM D-3a for varying amounts of time (30 minutes, 1 hour, 3 hours, and 6 hours, respectively) and imaged by confocal microscopy (FIG. 18B). […] Quantification of ectophosphatase activity on the surface of HeLa cells treated with 500 μM of D-3a is shown in FIGS. 18G-18H as a function of cell number or time, respectively.

[9] = test system: HS-5 cells; experiment: Fluorescence imaging of HeLa/HS-5 co-culture, HS-5; type: cell-based; settings: co-culture of HeLa and HS-5, 500 μM, 6 and 24 hours
Text: as §3, §4

[10] = test system: HeLa cells; experiment: LC-MS composition of pericellular hydrogel/nanofibrils and suspension medium of HeLa cells; type: in vitro ADME, human; settings: HeLa cells incubated with precursor at 560 μM at 37° C. for 12 hours
[11] = test system: HeLa cells; experiment: Cell viability assay (MTT), HeLa; type: cell-based, human; settings: 280 μM, direct addition
Description: Cells in exponential growth phase were seeded in a 96 well plate at a concentration of 2×10^4 cells/well. The cells were allowed to attach to the wells for 24 hours at 37° C., 5% CO2. The culture medium was removed and 100 μL culture medium containing compounds (immediately diluted from fresh prepared stock solution of 10 mM) at gradient concentrations (0 μM as the control) was placed into each well. After culturing at 37° C., 5% CO2 for 48 hours, each well was added by 10 μL of 5 mg/mL MTT (3-(4,5-dimethylthiazoL-2-yl)-2,5-diphenyltetrazolium bromide), and the plated cells were incubated in the dark for 4 hours. 100 μL 10% SDS with 0.01M HCl was added to each well to stop the reduction reaction and to dissolve the purple. After overnight incubation of the cells at 37° C., the OD at 595 nm of the solution was measured in a microplate reader. Data represent the mean±standard deviation of three independent experiments.

[12] = test system: HeLa cells; experiment: Pericellular hydrogelation on HeLa cells (optical images); type: cell-based, human; settings: 560 μM, 2 hours at 37° C.
Description: An 11.2 mM (8.09 mg/mL) stock solution of D-2a was prepared in ddH2O. The pH was adjusted to 7.4 using 1N NaOH. 2×10^5 cells in exponential growth phase were seeded in 35 mm Petri dish with 1 mL complete culture medium. Following overnight incubation, the medium was replaced with 1 mL of medium containing D-2a (diluted from the stock solution immediately prior to use). Petri dishes were incubated at 37° C. for two hours. Next, dishes were removed from the incubator and titled on a bench to visualize the pericellular hydrogel. Prior to co-incubation with phosphatase inhibitors, cells were washed three times with medium containing Pierce phosphatase inhibitor cocktail (Thermo) (contains sodium floride, sodium orthovanadate, sodium pyrophosphate, and beta-glycerophosphate). Next, 1 mL of medium containing both the inhibitor cocktail and D-2a was applied to the cells.

[13] = test system: HeLa cells; experiment: Cell adhesion assay; type: cell-based, human; settings: 560 μM, trypsinized HeLa cells, at 4 hours
Description: Cells in exponential growth phase were detached using 0.25% trypsin-EDTA. After neutralizing trypsin by addition of complete culture medium, the cells were collected by centrifuge (1000 rpm, 3 min). The cell pellet was suspended by addition of culture medium to a concentration of 4×10^5 cells/mL. 1 mL of the cell suspension was mixed with 1 mL of 2×D-2a or D-2b containing culture media. The resulting solutions were added into 96 well plate at 100 μL/well. After the desired time of incubation at 37° C., 5% CO2, the solution was gently removed, and then 100 μL of culture medium and 10 μL of 5 mg/mL MTT were added to each well. Following 4 hour incubation in the dark, 100 μL of 10% SDS with 0.01M HCl was added to each well to stop the reduction reaction and to dissolve the purple. After incubation of the cells at 37° C. for overnight, the viability was measured. Data represent the mean±standard deviation of three independent experiments.

[14] = test system: secretory phosphatases present in HeLa cell conditioned medium; experiment: Hydrogelation in HeLa cell conditioned medium; type: biochemical, human; settings: 560 μM, 48 hours
Description: 2×10^5 of cells in exponential growth phase were seeded in a 35 mm Petri dish with 1 mL complete culture medium. Following overnight incubation, 1 mL of new medium was replaced and incubated for 24 h at 5% CO2, 37° C. The medium was next removed and centrifuged at 10,000 rpm for 5 minutes. The suspension was placed into a 1.5 mL Eppendorf® tube and stored at −20° C. Stored conditioned medium was thawed and warmed to 37° C. in water bath immediately before use.
HeLa cell conditioned medium (“CM”) dephosphorylates D-2a to form D-2b nanofibrils.

O=C(CCNc1ccc([N+](=O)[O-])c2nonc12)NC(Cc1ccc2ccccc2c1)C(=O)N[C@H](Cc1ccccc1)C(=O)N[C@H](Cc1ccccc1)C(=O)N[C@H](Cc1ccc(OP(=O)(O)O)cc1)C(=O)O (stereo partly drawn) [D-3a, NBD-D-Nal-D-Phe-D-Phe-D-pTyr] ({NBD-βAla}-[ξ2Nal][dF][dF][d(pY)]-OH)
Cell surface exhibiting NBD fluorescence [1]: more than 50%
NBD fluorescence [2]: weak
NBD fluorescence [3]: no fluorescence
NBD fluorescence [4]: sporadic fluorescence on cell surface
NBD fluorescence [5]: strong fluorescence in the cytosol
Hydrogel formation after phosphatase-catalyzed dephosphorylation [6]: self-assembles to form the fluorescent nanonets/hydrogel
NBD fluorescence on cancer cells in co-culture [7]: selective formation of bright yellow (NBD) fluorescence on the surface of the cancer cells
Cell surface fluorescence over time ([8]; 500 μM, 30 minutes, 1 hour, 3 hours, 6 hours): increased cell surface fluorescence with time
Fluorescence after re-incubation in fresh medium ([8]; 6 hour incubation with D-3a, then fresh medium for 24 hours): only nuclear dye fluorescence
NBD fluorescence on stromal cells in co-culture [9]: only yellow puncta are observed inside the HS-5 stromal cells

O=C(Cc1ccc2ccccc2c1)N[C@@H](Cc1ccccc1)C(=O)N[C@@H](Cc1ccccc1)C(=O)N[C@@H](Cc1ccc(OP(=O)(O)O)cc1)C(=O)O [L-2a]
L-2b in suspension medium [10]: 176.6 µM
L-3 in suspension medium [10]: 270.4 µM

Nap-D-Phe-D-Phe-D-Tyr [D-2b]
Growth inhibition of HeLa cells [11]: hardly inhibits the growth
Pericellular hydrogel formation on HeLa cells [12]: hardly any hydrogelation; also recorded: does not form pericellular hydrogels
Cells reattached to surface [13]: > 80%
Hydrogel formation in HeLa cell conditioned medium [14]: fails to form a hydrogel
